Reference: US11491134B2, “Composition for inhibiting skin cell proliferation and/or anti-inflammation method for inhibiting skin cell proliferation and/or anti-inflammation and method for treating skin diseases and/or inflammatory diseases” (Industrial Technology Research Institute, priority 2019, dated 2022)

System: keratinocytes, HaCaT cells
Assay: Inhibition rate on keratinocyte (HaCaT cell) proliferation, MTT
Assay type: cell-based
Conditions: Homo sapiens
Experimental: Dimethyl sulfoxide (DMSO) was used as a solvent to prepare apigenin test samples with different concentrations and luteolin test samples with different concentrations. 9 batches of experiments were performed, which respectively were Batch 1 to Batch 9. There were 6 independent experiments in each batch of experiments. In each independent experiment, inhibition rate of an apigenin test sample with a specific concentration on keratinocyte proliferation and inhibition rate of a luteolin test sample with a specific concentration on keratinocyte proliferation were determined, and inhibition rate of a combination of an apigenin test sample with the said specific concentration and a luteolin test sample with the said specific concentration on keratinocyte proliferation was determined. Between the independent experiments, concentrations of apigenin test samples used were different, and concentrations of luteolin test samples used were also different, however, mole ratios or weight ratios of apigenin test samples to luteolin test samples were the same. Moreover, between the batches of experiments, mole ratios or weight ratios of apigenin test samples to luteolin test samples were different. 5×10^3 keratinocytes, HaCaT cells, were inoculated in a 96-well culture plate and then placed in a 37° C. and 5% CO2 incubator for culturing overnight, and cell numbers at this time point (T0) was used as a benchmark for cell proliferation. After overnight culture, a test sample was added to the cells in the culture plate (refer to Table 1, and the cells of the control group were only treated with dimethyl sulfoxide) for co-culturing for 48 hours (T48). After that, the supernatant in the culture plate was removed. After the supernatant was removed, 50 μL MTT solution (0.5 mg/mL; Life Technologies Cat. No. M-6494) was added to cells and then the culture plate was placed in a 37° C. and 5% CO2 incubator for culturing for 1.5 hours. After that, 150 μL DMSO (J. T. Baker, Cat. No. 9224-03) was added to the cells in the culture plate and shaken for 5 minutes. Thereafter, the absorbance of each well of the culture plate was determined at 570 nm by a continuous wavelength microplate reader, and inhibition rate on cell proliferation was calculated through the following formula: Inhibition rate on cell proliferation=T48 Control group570 nm−T48 Experimental group570 nm)/(T48 Control group570 nm−T0 Control group570 nm) In this experiment, the synergistic effects of apigenin and luteolin were evaluated by CalcuSyn software (BIOSOFT). CalcuSyn software is an analysis software which is commonly used to analyze the drug dosage effect of single drug and multiple drugs at present. CalcuSyn software can be used to analyze drug complex interactions and automatically quantify various phenomena such as synergism and inhibition. CalcuSyn software can process the data of individual drugs and combination drugs with constant-ratio or on-constant-ratio, and can evaluate the interaction of combination drugs by the combination index (CI) (Chou and Talalay, Adv. Enzyme Regul. 22:27-55 (1984) calculated by CalcuSyn software. Calculation formula for the combination index is shown in the following: Combination index=C1/IC1+C2/IC2 C1 and C2 are the respective concentrations of the first compound and the second compound at which the activity of achieving a specific physiological or medical purpose is 50% (or 75%, or 90%) when the first compound and the second compound are analyzed in combination; IC1 and IC2 are the respective concentrations at which the activity of achieving a specific physiological or medical purpose of the first compound and the second compound is 50% (or 75%, or 90%) when the first compound and the second compound are independently analyzed. […]

**Q.** `O=c1cc(-c2ccc(O)c(O)c2)oc2cc(O)cc(O)c12` [Luteolin, luteolin] was tested. Which inhibition at 3.125 µM (Batch 1, luteolin 3.125 μM/0.89 μg/mL) did it give?
**A.** Its inhibition at 3.125 µM is 0%.

**Q.** And the inhibition at 6.25 µM (Batch 1, luteolin 6.25 μM/1.79 μg/mL)?
**A.** The inhibition at 6.25 µM was 0.9%.

**Q.** And the inhibition at 12.5 µM (Batch 1, luteolin 12.5 μM/3.58 μg/mL)?
**A.** The inhibition at 12.5 µM was 17.2%.

**Q.** And the inhibition at 25 µM (Batch 1, luteolin 25 μM/7.16 μg/mL)?
**A.** The inhibition at 25 µM was 44.6%.

**Q.** What about the inhibition at 50 µM (Batch 1, luteolin 50 μM/14.31 μg/mL) of the same molecule?
**A.** The inhibition at 50 µM was 67.7%.

**Q.** And the inhibition at 100 µM (Batch 1, luteolin 100 μM/28.62 μg/mL)?
**A.** The inhibition at 100 µM was 101%.

**Q.** And the inhibition at 1.5625 µM (Batch 2, luteolin 1.5625 μM/0.45 μg/mL)?
**A.** Its inhibition at 1.5625 µM is 11.3%.

**Q.** And the inhibition at 3.125 µM (Batch 2, luteolin 3.125 μM/0.89 μg/mL)?
**A.** The inhibition at 3.125 µM was 5.1%.

**Q.** And the inhibition at 6.25 µM (Batch 2, luteolin 6.25 μM/1.79 μg/mL)?
**A.** The inhibition at 6.25 µM was 19.6%.

**Q.** And the inhibition at 12.5 µM (Batch 2, luteolin 12.5 μM/3.58 μg/mL)?
**A.** The inhibition at 12.5 µM was 35%.

**Q.** What about the inhibition at 25 µM (Batch 2, luteolin 25 μM/7.16 μg/mL) of the same molecule?
**A.** Its inhibition at 25 µM is 53.8%.

**Q.** What about the inhibition at 50 µM (Batch 2, luteolin 50 μM/14.31 μg/mL) of the same molecule?
**A.** The inhibition at 50 µM was 75.2%.

**Q.** And the inhibition at 0.625 µM (Batch 3, luteolin 0.625 μM/0.18 μg/mL)?
**A.** Its inhibition at 0.625 µM is 1.9%.

**Q.** What about the inhibition at 1.25 µM (Batch 3, luteolin 1.25 μM/0.36 μg/mL) of the same molecule?
**A.** The inhibition at 1.25 µM was 2.8%.

**Q.** And the inhibition at 2.5 µM (Batch 3, luteolin 2.5 μM/0.72 μg/mL)?
**A.** The inhibition at 2.5 µM was 4.3%.

**Q.** And the inhibition at 5 µM (Batch 3, luteolin 5 μM/1.43 μg/mL)?
**A.** Its inhibition at 5 µM is 13.7%.

**Q.** What about the inhibition at 10 µM (Batch 3, luteolin 10 μM/2.86 μg/mL) of the same molecule?
**A.** Its inhibition at 10 µM is 31.9%.

**Q.** What about the inhibition at 20 µM (Batch 3, luteolin 20 μM/5.72 μg/mL) of the same molecule?
**A.** The inhibition at 20 µM was 55.6%.

**Q.** And the inhibition at 0.3125 µM (Batch 4, luteolin 0.3125 μM/0.09 μg/mL)?
**A.** Its inhibition at 0.3125 µM is 0.4%.

**Q.** And the inhibition at 0.625 µM (Batch 4, luteolin 0.625 μM/0.18 μg/mL)?
**A.** The inhibition at 0.625 µM was 0%.

**Q.** And the inhibition at 1.25 µM (Batch 4, luteolin 1.25 μM/0.36 μg/mL)?
**A.** Its inhibition at 1.25 µM is 0%.

**Q.** And the inhibition at 2.5 µM (Batch 4, luteolin 2.5 μM/0.72 μg/mL)?
**A.** Its inhibition at 2.5 µM is 0%.

**Q.** And the inhibition at 5 µM (Batch 4, luteolin 5 μM/1.43 μg/mL)?
**A.** Its inhibition at 5 µM is 0.8%.

**Q.** And the inhibition at 10 µM (Batch 4, luteolin 10 μM/2.86 μg/mL)?
**A.** The inhibition at 10 µM was 6.6%.

**Q.** What about the inhibition at 0.15625 µM (Batch 5, luteolin 0.15625 μM/0.04 μg/mL) of the same molecule?
**A.** The inhibition at 0.15625 µM was 11.4%.

**Q.** And the inhibition at 0.3125 µM (Batch 5, luteolin 0.3125 μM/0.09 μg/mL)?
**A.** The inhibition at 0.3125 µM was 14%.

**Q.** And the inhibition at 0.625 µM (Batch 5, luteolin 0.625 μM/0.18 μg/mL)?
**A.** Its inhibition at 0.625 µM is 4.3%.

**Q.** What about the inhibition at 1.25 µM (Batch 5, luteolin 1.25 μM/0.36 μg/mL) of the same molecule?
**A.** Its inhibition at 1.25 µM is 0%.

**Q.** What about the inhibition at 2.5 µM (Batch 5, luteolin 2.5 μM/0.72 μg/mL) of the same molecule?
**A.** The inhibition at 2.5 µM was 0%.

**Q.** And the inhibition at 5 µM (Batch 5, luteolin 5 μM/1.43 μg/mL)?
**A.** Its inhibition at 5 µM is 3.3%.

**Q.** What about the inhibition at 3.125 µM (Batch 6, luteolin 3.125 μM/0.89 μg/mL) of the same molecule?
**A.** The inhibition at 3.125 µM was 0%.

**Q.** And the inhibition at 6.25 µM (Batch 6, luteolin 6.25 μM/1.79 μg/mL)?
**A.** The inhibition at 6.25 µM was 0.6%.

**Q.** And the inhibition at 12.5 µM (Batch 6, luteolin 12.5 μM/3.58 μg/mL)?
**A.** The inhibition at 12.5 µM was 18.5%.

**Q.** And the inhibition at 25 µM (Batch 6, luteolin 25 μM/7.16 μg/mL)?
**A.** Its inhibition at 25 µM is 42.2%.

**Q.** What about the inhibition at 50 µM (Batch 6, luteolin 50 μM/14.31 μg/mL) of the same molecule?
**A.** Its inhibition at 50 µM is 57.8%.

**Q.** What about the inhibition at 100 µM (Batch 6, luteolin 100 μM/28.62 μg/mL) of the same molecule?
**A.** The inhibition at 100 µM was 94.2%.

**Q.** What about the inhibition at 3.125 µM (Batch 7, luteolin 3.125 μM/0.89 μg/mL) of the same molecule?
**A.** Its inhibition at 3.125 µM is 8.6%.

**Q.** And the inhibition at 6.25 µM (Batch 7, luteolin 6.25 μM/1.79 μg/mL)?
**A.** The inhibition at 6.25 µM was 19%.

**Q.** And the inhibition at 12.5 µM (Batch 7, luteolin 12.5 μM/3.58 μg/mL)?
**A.** The inhibition at 12.5 µM was 37.5%.

**Q.** And the inhibition at 25 µM (Batch 7, luteolin 25 μM/7.16 μg/mL)?
**A.** Its inhibition at 25 µM is 55.1%.

**Q.** And the inhibition at 50 µM (Batch 7, luteolin 50 μM/14.31 μg/mL)?
**A.** The inhibition at 50 µM was 70.1%.

**Q.** And the inhibition at 100 µM (Batch 7, luteolin 100 μM/28.62 μg/mL)?
**A.** The inhibition at 100 µM was 108%.

**Q.** And the inhibition at 3.125 µM (Batch 8, luteolin 3.125 μM/0.89 μg/mL)?
**A.** Its inhibition at 3.125 µM is 5.2%.

**Q.** And the inhibition at 6.25 µM (Batch 8, luteolin 6.25 μM/1.79 μg/mL)?
**A.** The inhibition at 6.25 µM was 13.8%.

**Q.** And the inhibition at 12.5 µM (Batch 8, luteolin 12.5 μM/3.58 μg/mL)?
**A.** Its inhibition at 12.5 µM is 33.5%.

**Q.** And the inhibition at 25 µM (Batch 8, luteolin 25 μM/7.16 μg/mL)?
**A.** The inhibition at 25 µM was 50.7%.

**Q.** What about the inhibition at 50 µM (Batch 8, luteolin 50 μM/14.31 μg/mL) of the same molecule?
**A.** Its inhibition at 50 µM is 63.6%.

**Q.** And the inhibition at 100 µM (Batch 8, luteolin 100 μM/28.62 μg/mL)?
**A.** The inhibition at 100 µM was 100%.

**Q.** And the inhibition at 3.125 µM (Batch 9, luteolin 3.125 μM/0.89 μg/mL)?
**A.** Its inhibition at 3.125 µM is 4.2%.

**Q.** And the inhibition at 6.25 µM (Batch 9, luteolin 6.25 μM/1.79 μg/mL)?
**A.** The inhibition at 6.25 µM was 11%.

**Q.** What about the inhibition at 12.5 µM (Batch 9, luteolin 12.5 μM/3.58 μg/mL) of the same molecule?
**A.** Its inhibition at 12.5 µM is 30.1%.

**Q.** And the inhibition at 25 µM (Batch 9, luteolin 25 μM/7.16 μg/mL)?
**A.** The inhibition at 25 µM was 47.8%.

**Q.** And the inhibition at 50 µM (Batch 9, luteolin 50 μM/14.31 μg/mL)?
**A.** Its inhibition at 50 µM is 62%.

**Q.** And the inhibition at 100 µM (Batch 9, luteolin 100 μM/28.62 μg/mL)?
**A.** The inhibition at 100 µM was 104%.
